From patent EP4578861A1, “NOVEL TRICYCLIC HETEROCYCLIC CARBALDEHYDE COMPOUND AND PHARMACEUTICAL COMPOSITION, CONTAINING SAME, FOR IRE1ALPHA INHIBITION” (Hanmi Pharm. Co., Ltd., priority 2022, dated 2024)

Test system: spliced XBP1
Test: Spliced XBP1 mRNA measurement test (RT-PCR, tunicamycin-induced ER stress in MCF-7 cells)
Format: cell-based
Settings: compound pre-treated for 1 hour, then 2 µg/mL tunicamycin for 6 or 24 hours, spliced XBP1 corrected by total XBP1
Description: With respect to these synthetic compounds, reverse transcription polymerase chain reaction (RT-PCR) experiments were conducted on MCF-7 cancer cells to confirm the effect thereof on the mRNA and protein amounts of spliced XBP1, which is the target of IRE endonuclease. A reverse transcription polymerase chain reaction is a test method in which RNA is extracted from cells, reverse transcriptase is used to make cDNA, and relative mRNA expression level is measured through a polymerase chain reaction.
Briefly, MCF-7 cells were seeded in a 12-well plate and cultured in an incubator including 5% CO2 for one day. On the next day, compounds, which were 10-fold serially diluted from 10,000 nM, were pre-treated for 1 hour, and then, treated with 2 µg/mL tunicamycin for 6 or 24 hours to induce endoplasmic reticulum stress, followed by cell lysis to obtain RNA. RNA was subjected to the procedure of RNeasy Kits (Qiagen, 74106), and 5 µg of RNA sample was dissolved in a sample including reverse transcriptase and dNTP, and reverse transcription reaction was performed with a thermal cycler. The amount of mRNA of each of spliced XBP1 and total XBP1 was measured by a polymerase chain reaction through real time PCR by mixing each cDNA sample with a PCR reaction mixture including a primer pair capable of binding specifically to each target and SYBR green dye. The expression level of spliced XBP1 was corrected by the total expression level of XBP1, and the relative expression levels of spliced XBP1 between samples were compared and analyzed.

SMILES: COc1cc2c(C)c(CC(=O)N3CCOCC3)c(=O)oc2c(C=O)c1O [MKC8866, reference compound]
- IC50: < 100 nM
